Marks after values point to notes of the source that are not given here.
Columns and labels:
[1] = test system: fibrillin-rich microfibrils proximal to the dermal-epidermal junction (DEJ); experiment: Patch-test protocol, immunohistochemistry of fibrillin-rich microfibrils in photoaged skin in vivo; set-up: species or system human; settings: for Fibrillin expression proximal to the DEJ, Mean (degree of immunostaining): scale 0-4
Source text: (§1) It was done by identification of Procollagen-I and Fibrillin upregulation and matrix metalloprotease-1 (MMP-1) down-regulation in Skin In Vivo. Experiments were done following topical Retinoic Acid (RA) treatment for comparative purposes and analysis of the effects of salicyloyl-phytosphingosine and phytosphingosine compared with retinoic acid with respect to the expression of dermal markers in vivo. See: Watson R E B, Craven N M, Kang S, Jones C J P, Kielty C M, Griffiths C E M. A short term screening protocol, using fibrillin-1 as a […] molecule for photoageing repair agents. J Invest Dermatol, 116: 672-678, 2001, for published methodology.
(§2) Five healthy, but clinically photoaged volunteers, were recruited (age range 54-71 years). Test substances were applied separately under standard 6 mm diameter Finn chambers to the extensor aspect of the forearm: these were vehicle base (15 μl/chamber), 0.2% PS-SLC (15 μl/chamber), 0.05% PS-SLC (15 μl/chamber), 0.2% phytosphingosine (15 μl/chamber) and 0.025% all-tans RA (Retin-A® cream, Janssen-Cilag Ltd., 15 μl/chamber). Formulations were applied to clean skin on days 1 and 4 of the assay. All-trans RA was applied to an untreated site on day 4. On day 8, Finn chambers were removed and 3 mm punch biopsies were obtained under 1% lignocaine anaesthesia from each of the test site. Biopsies were embedded in OCT compound (Tissue-Tek®, Miles, Ind., USA) and snap frozen in liquid nitrogen. Biopsy sites were sutured with 1×4/o ethilon and subjects instructed to return between 7-10 days for suture removal. Frozen sections were […] at a thickness of 10 μm (OTF cryostat, Bright Instruments Ltd.) and mounted onto gelatin-coated slides prior to histological analysis. A number of extracellular matrix (ECM) molecules known to be altered in photoaged skin were assayed by immunohistochemistry to detail the potential effects of the novel formulations. The primary marker of outcome was the distribution of fibrillin-rich microfibrils proximal to the dermal-epidermal junction (DEJ). Also assessed was the distribution of procollagen-1 within the dermis.
(§3) Matrix metalloprotease-1 (MMP-1) levels were also assessed. Whilst the fibrillin and procollagen-1 should increase for an antiaging active levels of MMP-1 should decrease for an antiaging active, i.e., increased synthesis of dermal structural proteins together with reduced levels of the proteases that degrade them. For each analysis, the marker was identified in each of three sections (i.e., 3 sections/treatment/volunteer). Sections were optimally fixed. Routinely, following hydration in tris-buffered saline (TBS; 100 mM Tris, 150 mM NaCl), sections were solublised by addition of 0.5% Triton-X100 (10 minutes). Following washing, endogenous peroxidase activity was abolished by incubation with an excess of hydrogen peroxide in methanol (30 minutes). Sections were blocked prior to application of primary antibody (overnight incubation @4° C.). Negative controls were concurrently incubated with either block alone or control serum. Following incubation, sections were stringently washed with TBS prior to application of an appropriate biotinylated secondary antibody. This was further conjugated to the enzyme horseradish peroxidase using a commercially available kit following the manufacturers instructions (ABC Elite System, Vector Laboratory, Peterborough UK). Antibody was localised using Vector SG® as chromogen (10 minute incubation)—washing in TBS quenched this reaction. Sections were counterstained using Nuclear Fast Red and finally dehydrated through serial alcohols, cleared and permanently mounted.
(§4) Sections were randomised, blinded and examined on a Nikon OPTIPHOT microscope (Tokyo, Japan). For assessment of ECM and cornified envelope components, the degree of immunostaining was assessed on a 5 point semi-quantitative scale where 0=no staining and 4=maximal staining. Four sections (including control) were examined per subject per site. […]

[2] = test system: pro-collagen I in the papillary dermis; experiment: Patch-test protocol, immunohistochemistry of pro-collagen I in photoaged skin in vivo; set-up: species or system human; settings: for Pro-collagen I expression in the papillary dermis, Mean (degree of immunostaining): scale 0-4, N=5
Source text: as §1, §2, §3, §4

[3] = test system: Matrix metalloprotease-1 (MMP-1); experiment: Patch-test protocol, immunohistochemistry of MMP-1 in photoaged skin in vivo; set-up: species or system human; settings: for MMP-1 expression, Mean (MMP-1 IHC): N=5
Source text: as §1, §2, §3, §4

[4] = Patch-test protocol, erythema at the site of application; format: in vivo, human; settings: occluded patch test on forearm, photoaged volunteers
Experimental: as §2, with “The primary marker of outcome was the distribution of fibrillin-rich microfibrils proximal to the dermal-epidermal junction (DEJ).” left out

cellulite (thigh) = experiment: Clinical trial of anticellulite activity by topical application; format: in vivo, human; settings: 0.2% formulation of Example 2, two times a day for 2 months, six female subjects
Source text: Six female subjects were selected for a clinical trial of anticellulite activity of salicyloyl-phytoshingosine by topical application.
The scale ranged from 0 to 4, being 0=No cellulite; 1=Small bumps or depressions; 2=Striations and bumps; 3=Pronounced lumpiness of the skin and striations; 4=All of the above plus hard sub-surface nodules. All tested volunteers had cellulite with grades 1 and 2. The subjects were divided in 2 groups of 3 individuals
Group 1 was instructed to apply a formulation described in Example 2 containing 0.2% salicloyl-phytosphingosine on the right thigh and the vehicle formulation without salicyloyl-phytoshingosine in the left thigh Group 2 was instructed to apply the formulations vice versa. The subjects were taught to carry out the application two times a day, at morning and at night for a period of 2 months. Afterwards the cellulite condition was evaluated by comparison of the thigh diameter, the clinical degrading and the subjective improvement.

[5] = 0.2% topical occluded, vs vehicle
[6] = 0.2% topical under Finn chamber, applied days 1 and 4, biopsy day 8, N=5 photoaged volunteers
[7] = topical occluded application, concentration not given
[8] = 0.2% topical under Finn chamber, applied days 1 and 4, biopsy day 8
[9] = 0.025% (Retin-A cream), applied day 4, biopsy day 8
[10] = 0.05% topical under Finn chamber, applied days 1 and 4, biopsy day 8

Erythema at the site of application [4] | SMILES | Fibrillin-1 deposition proximal to the DEJ (in words) [1, 5] | Fibrillin expression proximal to the DEJ, Mean (degree of immunostaining) [1, 6] | Fibrillin-rich microfibrillar network proximal to the DEJ of photoaged skin (study summary, in words) [1, 7] | pCI content in the papillary dermis (in words) [2, 5] | Pro-collagen I expression in the papillary dermis, Mean (degree of immunostaining) [2, 8] | Effects on procollagen I in the papillary dermis (study summary, in words) [2, 7] | MMP-1 levels (in words) [3, 5] | MMP-1 expression, Mean (MMP-1 IHC) [3, 8] | Fibrillin expression proximal to the DEJ, Mean (degree of immunostaining) ([1]; 0.025% (Retin-A cream) under Finn chamber, applied day 4, biopsy day 8, N=5) | Pro-collagen I expression in the papillary dermis, Mean (degree of immunostaining) [2, 9] | MMP-1 expression, Mean (MMP-1 IHC) [3, 9] | Expression of MMP-1 (in words) ([3]; 0.025% all-trans RA, 4 day occluded application) | Clinical grading (cellulite) reduction in comparison with the vehicle treated thigh (cellulite (thigh)) | Subjective improvement increase in comparison with the vehicle treated thigh (cellulite (thigh)) | Thigh diameter reduction in comparison with the vehicle treated thigh (cellulite (thigh)) | Fibrillin expression proximal to the DEJ, Mean (degree of immunostaining) ([1]; 0.05% topical under Finn chamber, applied days 1 and 4, biopsy day 8, N=5) | Pro-collagen I expression in the papillary dermis, Mean (degree of immunostaining) [2, 10] | MMP-1 expression, Mean (MMP-1 IHC) [3, 10]
– | CCCCCCCCCCCCCC[C@@H](O)[C@@H](O)[C@@H](N)CO [PS, phytosphingosine] | significant induction of fibrillin expression | 2.0000** | restores | significantly increased | 2.5556** | beneficial effects | no effect | 33.23 | – | – | – | – | – | – | – | – | – | –
marked erythema | CC1=C(/C=C/C(C)=C/C=C/C(C)=C/C(=O)O)C(C)(C)CCC1 [RA, retinoic acid] | – | – | – | – | – | – | – | – | 2.8625** | 2.2667 | 36.82 | no effect | – | – | – | – | – | –
– | CCCCCCCCCCCCCC[C@@H](O)[C@@H](O)[C@H](CO)NC(=O)c1ccccc1O [PS-SLC, salicyloyl-phytosphingosine] | – | 2.267* | – | – | 2.7790* | – | – | 22.72* | – | – | – | – | 27% | 34% | 4% | 1.7778** | 2.2472 | 18.40*
